Data reported in US5096901A, “Pharmacologically active amides and esters containing an azabicycloalkane moiety” (John Wyeth & Brother Limited, priority 1989, dated 1992).

Target: T1, 5-HT3 receptors (Rattus norvegicus, UniProt P35563)
T1 sequence (P35563 24-483): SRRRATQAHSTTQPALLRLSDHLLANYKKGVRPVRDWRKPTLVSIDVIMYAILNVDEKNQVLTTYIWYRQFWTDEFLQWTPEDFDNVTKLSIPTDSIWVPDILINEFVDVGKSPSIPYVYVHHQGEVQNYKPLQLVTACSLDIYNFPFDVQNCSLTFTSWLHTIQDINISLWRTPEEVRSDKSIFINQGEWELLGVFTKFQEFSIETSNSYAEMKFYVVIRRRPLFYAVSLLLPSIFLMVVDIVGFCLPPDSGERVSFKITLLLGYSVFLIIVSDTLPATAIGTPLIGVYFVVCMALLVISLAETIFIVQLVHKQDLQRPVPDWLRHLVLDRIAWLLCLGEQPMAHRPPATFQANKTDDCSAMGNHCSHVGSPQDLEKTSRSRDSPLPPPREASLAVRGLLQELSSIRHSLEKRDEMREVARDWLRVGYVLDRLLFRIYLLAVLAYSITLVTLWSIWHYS
Description: The compounds of the invention are tested for 5-HT3 antagonistic activity in the rat vagus by the following procedure:
Segments of the vagus nerve from Sprague-Dawley rats were placed in a perspex chamber and perfused with Krebs solution. Electrodes, positioned at either end of the nerve segment, were used to record the potential differences which ensued upon the addition of various concentrations of 5-HT to one end of the nerve segment. Concentration-response curves to 5-HT were obtained in this manner prior to and following equilibration of the nerve segment with Krebs solution containing the test-substance.

Compound `CN1[C@@H]2CC[C@H]1C[C@@H](NC(=O)c1cn(C)c3ccccc3c1=O)C2` [Example 1, (Endo)-N-(8-methyl-8-azabicyclo [3.2.1]octan-3-yl)-1,4-dihydro-1-methyl-4-oxoquinoline-3-carboxamide] has a Kb of 3.98 nM.
